{"source": "patent US20260184733A1", "about": "“CRYSTAL FORM OF NEUROKININ-1 ANTAGONIST PRODRUG COMPOUND” (JIANGSU HENGRUI PHARMACEUTICALS CO., LTD., priority 2022, published 2026)", "format_in_all_cases": "physicochemical", "key": {"[1]": {"test": "Dissolution of the raw material in 50% tert-butanol solution when preparing the lyophilized composition", "details": "4.36% (w/v) in 50% tert-butanol with 5% mannitol, stirred at room temperature", "protocol": "Tert-butanol and water were mixed at a volume ratio of 1:1 to form a 50% tert-butanol solution. 90% of the target volume of the solution was taken, and 5% (mass volume percentage) of mannitol and 4.36% of the raw material of the compound represented by formula I were added. The mixture was stirred at room temperature for dissolution (dissolution being considered as the absence of significant blocky or flocculent insoluble substances in the solution). The pH was adjusted to 5 with dilute hydrochloric acid or sodium hydroxide, filtration was performed with a […] organic filtration membrane to obtain a clear solution, and the volume of the clear solution was made constant with 50% tert-butanol. The above-mentioned solution was stored at 4° C. before subpackaging. After subpackaging according to the target volume, half of a stopper was pressed, and a freeze-drying procedure was run. After the completion of the procedure, nitrogen was filled, the remaining stopper was pressed, and the freeze-dried compounds were taken out of the box."}, "[2]": {"test": "Crystal form conversion on stirring in ethyl acetate at room temperature", "details": "1.0 g in 1.5 mL ethyl acetate, stirred at room temperature, filtered, dried under vacuum", "protocol": "1.0 g of the crystal form I of the compound represented by formula I was added to 1.5 mL of ethyl acetate, and the mixture was stirred at room temperature, filtered, and dried under vacuum.\n1.0 g of the crystal form III of the compound represented by formula I was added to 1.5 mL of ethyl acetate, and the mixture was stirred at room temperature, filtered, and dried under vacuum."}, "[3]": {"test": "Solvent residue of the crystal forms determined by gas chromatography", "protocol": "The solvent residue of the crystal form of the compound represented by formula I was determined by gas chromatography, as shown in the table below."}}, "data": [{"smiles": "C[C@@H](OC[C@@]1(c2ccccc2)CC[C@]2(CCC(=O)N2)CN1C(=O)OCOP(=O)(O)O)c1cc(C(F)(F)F)cc(C(F)(F)F)c1", "note": "[amorphous form]", "values": [{"measurement": "Dissolution behaviour of the raw material", "setting": "[1]", "value": "agglomerated in a large amount in the solution, resulting in the inability to completely dissolve the raw material"}]}, {"smiles": "C[C@@H](OC[C@@]1(c2ccccc2)CC[C@]2(CCC(=O)N2)CN1C(=O)OCOP(=O)(O)O)c1cc(C(F)(F)F)cc(C(F)(F)F)c1", "note": "[Crystal form III]", "values": [{"measurement": "Crystal form after slurrying", "setting": "[2]", "value": "conversion to the crystal form II"}, {"measurement": "Solvent residue: 1,4-Dioxane", "setting": "[3]", "value": 6.3, "unit": "%"}, {"measurement": "Solvent residue: Ethylene glycol dimethyl ether", "setting": "[3]", "value": "Not detected"}]}, {"smiles": "C[C@@H](OC[C@@]1(c2ccccc2)CC[C@]2(CCC(=O)N2)CN1C(=O)OCOP(=O)(O)O)c1cc(C(F)(F)F)cc(C(F)(F)F)c1", "note": "[Crystal form I]", "values": [{"measurement": "Crystal form after slurrying", "setting": "[2]", "value": "conversion to the crystal form II"}, {"measurement": "Solvent residue: Ethyl acetate", "setting": "[3]", "value": 0.0293, "unit": "%"}, {"measurement": "Solvent residue: Ethylene glycol dimethyl ether", "setting": "[3]", "value": "Not detected"}, {"measurement": "Solvent residue: Isopropyl ether", "setting": "[3]", "value": 12.0, "unit": "%"}]}, {"smiles": "C[C@@H](OC[C@@]1(c2ccccc2)CC[C@]2(CCC(=O)N2)CN1C(=O)OCOP(=O)(O)O)c1cc(C(F)(F)F)cc(C(F)(F)F)c1", "note": "[Crystal form II]", "values": [{"measurement": "Dissolution behaviour of the raw material", "setting": "[1]", "value": "dissolved faster, no agglomeration occurred"}, {"measurement": "Solvent residue, comparison of the crystal forms", "setting": "[3]", "value": "lowest solvent residue"}, {"measurement": "Solvent residue: Ethyl acetate", "setting": "[3]", "value": 0.0105, "unit": "%"}, {"measurement": "Solvent residue: Ethylene glycol dimethyl ether", "setting": "[3]", "value": "Not detected"}, {"measurement": "Solvent residue: Methyl tert-butyl ether", "setting": "[3]", "value": 0.1867, "unit": "%"}]}]}
